Source: patent publication US9695155B2, “Herbicidal substituted pyrimidinyloxy benzene compounds” (E. I. DU PONT DE NEMOURS AND COMPANY, priority 2013, dated 2017)

Assays:
[1] = test system: waterhemp_RES2 (ALS & HPPD resistant common waterhemp); test: Test E postemergence; assay type: in vivo, Amaranthus rudis
Source text: (§1) Seeds of plant species selected from corn (Zea mays), soybean (Glycine max), velvetleaf (Abutilon theophrasti), lambsquarters (Chenopodium album), wild poinsettia (Euphorbia heterophylla), palmer pigweed (Amaranthus palmeri), waterhemp (common waterhemp, Amaranthus rudis), surinam grass (Brachiaria decumbens), large (Lg) crabgrass (Digitaria sanguinalis), Brazilian crabgrass (Digitaria horizontalis), fall panicum (Panicum dichotomiflorum), giant foxtail (Setaria faberii), green foxtail (Setaria viridis), goosegrass (Eleusine indica), johnsongrass (Sorghum halepense), ragweed (common ragweed, Ambrosia elatior), barnyardgrass (Echinochloa crus-galli), sandbur (southern sandbur, Cenchrus echinatus), arrowleaf sida (Sida rhombifolia), Italian ryegrass (Lolium multiflorum), dayflower (Virginia (VA) dayflower, Commelina virginica), field bindweed (Convolvulus arvensis), morningglory (Ipomoea coccinea), nightshade (eastern black nightshade, Solanum ptycanthum), kochia (Kochia scoparia), yellow nutsedge (Cyperus esculentus), cocklebur (common cocklebur, Xanthium strumarium), smartweed (ladysthumb smartweed, and hairy beggarticks (Bidens pilosa), were planted into a silt loam soil and treated preemergence with test chemicals formulated in a non-phytotoxic solvent mixture which included a surfactant.
(§2) At the same time, plants from these crop and weed species and also horseweed (Canada horseweed, Conyza canadensis), waterhemp_RES1, (ALS & Triazine resistant common waterhemp, Amaranthus rudis), and waterhemp_RES2, (ALS & HPPD resistant common waterhemp, Amaranthus rudis) were planted in pots containing Redi-Earth® planting medium (Scotts Company, 14111 Scottslawn Road, Marysville, Ohio 43041) comprising spaghnum peat moss, vermiculite, wetting agent and starter nutrients were treated with postemergence applications of test chemicals formulated in the same manner. Plants ranged in height from 2 to 18 cm for postemergence treatments (1- to 4-leaf stage). Treated plants and controls were maintained in a greenhouse for 14 to 21 days, after which time all species were compared to controls and visually evaluated. Plant response ratings, summarized in Table E, are based on a scale of 0 to 100 where 0 is no effect and 100 is complete control. A dash (-) response means no test result.

waterhemp = test: Test E postemergence; assay type: in vivo, Amaranthus rudis
Source text: as §1, §2

sandbur = test: Test E postemergence; assay type: in vivo, Cenchrus echinatus
Source text: as §1, §2

galium = test: Test D preemergence; assay type: in vivo, Galium aparine
Outline: (§3)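 Species were sown in silt loam for preemergence treatment, or grown in peat-based medium to the 1–4-leaf stage (2–18 cm) for postemergence sprays. Test chemicals were formulated in a non-phytotoxic solvent mixture with surfactant. After 7–21 days in a controlled environment, plants were rated visually against controls on a 0 (no effect) to 100 (complete control) scale.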

field poppy = test: Test D preemergence; assay type: in vivo, Papaver rhoeas
Outline: as §3

field violet = test: Test D preemergence; assay type: in vivo, Viola arvensis
Outline: as §3

kochia = test: Test D preemergence; assay type: in vivo, Kochia scoparia
Outline: as §3

chamomile [2] = test: Test D preemergence; assay type: in vivo, Matricaria inodora
Outline: as §3

wild oat = test: Test D preemergence; assay type: in vivo, Avena fatua
Outline: as §3

windgrass = test: Test D preemergence; assay type: in vivo, Apera spica-venti
Outline: as §3

green foxtail = test: Test D postemergence; assay type: in vivo, Setaria viridis
Outline: as §3

chamomile [3] = test: Test D postemergence; assay type: in vivo, Matricaria inodora
Outline: as §3

spring wheat = test: Test D postemergence; assay type: in vivo, Triticum aestivum
Outline: as §3

winter wheat = test: Test D postemergence; assay type: in vivo, Triticum aestivum
Outline: as §3

[4] = Postemergence, 31 g ai/ha, scale 0 to 100
[5] = Postemergence, 62 g ai/ha, scale 0 to 100
[6] = Postemergence, 125 g ai/ha, scale 0 to 100
[7] = Postemergence, 250 g ai/ha, scale 0 to 100
[8] = postemergence, 16 g ai/ha, scale 0 to 100, 0 no effect, 100 complete control
[9] = postemergence, 8 g ai/ha, scale 0 to 100, 0 no effect, 100 complete control
[10] = 31 g ai/ha, scale 0 (no effect) to 100 (complete control)
[11] = 62 g ai/ha, scale 0 to 100 (0 no effect, 100 complete control)
[12] = 125 g ai/ha, scale 0 to 100 (0 no effect, 100 complete control)
[13] = 250 g ai/ha, scale 0 to 100 (0 no effect, 100 complete control)

Fc1cnc(Oc2ccccc2-n2cc(Br)cn2)nc1 [Compound 10, 2-[2-(4-bromo-1H-pyrazol-1-yl)phenoxy]-5-fluoropyrimidine]
pest or weed control at 31 g/ha ([1]; Amaranthus tuberculatus, post-emergence, Postemergence, 31 g ai/ha, scale 0 to 100, read-out: Plant response rating, Waterhemp_RES2): 60% | pest or weed control at 62 g/ha ([1]; Amaranthus tuberculatus, post-emergence, Postemergence, 62 g ai/ha, scale 0 to 100, read-out: Plant response rating, Waterhemp_RES2): 75% | pest or weed control at 125 g/ha ([1]; Amaranthus tuberculatus, post-emergence, Postemergence, 125 g ai/ha, scale 0 to 100, read-out: Plant response rating, Waterhemp_RES2): 80% | pest or weed control at 250 g/ha ([1]; Amaranthus tuberculatus, post-emergence, Postemergence, 250 g ai/ha, scale 0 to 100, read-out: Plant response rating, Waterhemp_RES2): 90% | pest or weed control at 16 g/ha ([1]; Amaranthus tuberculatus, post-emergence, postemergence, 16 g ai/ha, scale 0 to 100, 0 no effect, 100 complete control, read-out: Plant response rating, Waterhemp_RES2): 50% | pest or weed control at 31 g/ha (waterhemp; Amaranthus tuberculatus, post-emergence, Postemergence, 31 g ai/ha, scale 0 to 100, read-out: Plant response rating, Waterhemp): 80% | pest or weed control at 62 g/ha (waterhemp; Amaranthus tuberculatus, post-emergence, Postemergence, 62 g ai/ha, scale 0 to 100, read-out: Plant response rating, Waterhemp): 85% | pest or weed control at 125 g/ha (waterhemp; Amaranthus tuberculatus, post-emergence, Postemergence, 125 g ai/ha, scale 0 to 100, read-out: Plant response rating, Waterhemp): 95% | pest or weed control at 250 g/ha (waterhemp; Amaranthus tuberculatus, post-emergence, Postemergence, 250 g ai/ha, scale 0 to 100, read-out: Plant response rating, Waterhemp): 95% | pest or weed control at 31 g/ha (sandbur; Cenchrus echinatus, post-emergence, Postemergence, 31 g ai/ha, scale 0 to 100, read-out: Plant response rating, Sandbur): 0% | pest or weed control at 62 g/ha (sandbur; Cenchrus echinatus, post-emergence, Postemergence, 62 g ai/ha, scale 0 to 100, read-out: Plant response rating, Sandbur): 0% | pest or weed control at 125 g/ha (sandbur; Cenchrus echinatus, post-emergence, Postemergence, 125 g ai/ha, scale 0 to 100, read-out: Plant response rating, Sandbur): 0% | pest or weed control at 250 g/ha (sandbur; Cenchrus echinatus, post-emergence, Postemergence, 250 g ai/ha, scale 0 to 100, read-out: Plant response rating, Sandbur): 0% | pest or weed control at 16 g/ha (sandbur; Cenchrus echinatus, post-emergence, postemergence, 16 g ai/ha, scale 0 to 100, 0 no effect, 100 complete control, read-out: Plant response rating, Sandbur): 0%

FC(F)(F)c1cnn(-c2ccccc2Oc2ncc(Cl)cn2)c1 [Compound 16]
Plant response rating, Waterhemp_RES2 [1, 4]: 50 | Plant response rating, Waterhemp_RES2 [1, 5]: 60 | Plant response rating, Waterhemp_RES2 [1, 6]: 70 | Plant response rating, Waterhemp_RES2 [1, 7]: 85 | Plant response rating, Waterhemp_RES2 [1, 8]: 25 | Plant response rating, Waterhemp (waterhemp; [4]): 60 | Plant response rating, Waterhemp (waterhemp; [5]): 85 | Plant response rating, Waterhemp (waterhemp; [6]): 90 | Plant response rating, Waterhemp (waterhemp; [7]): 90 | Plant response rating, Waterhemp (waterhemp; [8]): 60 | Plant response rating, Sandbur (sandbur; [4]): 0 | Plant response rating, Sandbur (sandbur; [5]): 0 | Plant response rating, Sandbur (sandbur; [6]): 0 | Plant response rating, Sandbur (sandbur; [7]): 0 | Plant response rating, Sandbur (sandbur; [8]): 0

Clc1cnc(Oc2cccc(Br)c2-n2cc(Br)cn2)nc1 [Compound 65]
Plant response rating, Waterhemp_RES2 [1, 4]: 90 | Plant response rating, Waterhemp_RES2 [1, 5]: 95 | Plant response rating, Waterhemp_RES2 [1, 6]: 98 | Plant response rating, Waterhemp_RES2 [1, 8]: 80 | Plant response rating, Waterhemp (waterhemp; [4]): 70 | Plant response rating, Waterhemp (waterhemp; [5]): 75 | Plant response rating, Waterhemp (waterhemp; [6]): 95 | Plant response rating, Waterhemp (waterhemp; [9]): 60 | Plant response rating, Waterhemp (waterhemp; [8]): 50 | Plant response rating, Sandbur (sandbur; [4]): 0 | Plant response rating, Sandbur (sandbur; [5]): 0 | Plant response rating, Sandbur (sandbur; [6]): 0 | Plant response rating, Sandbur (sandbur; [9]): 0 | Plant response rating, Sandbur (sandbur; [8]): 0

N#Cc1cccc(Oc2ncc(Cl)cn2)c1-n1cc(-n2ccc(C(F)(F)F)n2)cn1 [Compound 284]
Plant response rating, Galium (galium; [10]): 20 | Plant response rating, Galium (galium; 62 g ai/ha, scale 0-100): 20 | Plant response rating, Galium (galium; 125 g ai/ha, scale 0-100): 20 | Plant response rating, Galium (galium; 250 g ai/ha, scale 0-100): 25 | Plant response rating, Field Poppy (field poppy; [10]): 100 | Plant response rating, Field Poppy (field poppy; 62 g ai/ha, scale 0-100): 100 | Plant response rating, Field Poppy (field poppy; 125 g ai/ha, scale 0-100): 100 | Plant response rating, Field Poppy (field poppy; 250 g ai/ha, scale 0-100): 100 | Plant response rating, Field Violet (field violet; [10]): 45 | Plant response rating, Field Violet (field violet; 62 g ai/ha, scale 0-100): 100 | Plant response rating, Field Violet (field violet; 125 g ai/ha, scale 0-100): 100 | Plant response rating, Field Violet (field violet; 250 g ai/ha, scale 0-100): 100 | Plant response rating, Kochia (kochia; [10]): 0 | Plant response rating, Kochia (kochia; 62 g ai/ha, scale 0-100): 20 | Plant response rating, Kochia (kochia; 125 g ai/ha, scale 0-100): 100 | Plant response rating, Kochia (kochia; 250 g ai/ha, scale 0-100): 95 | Plant response rating, Chamomile (chamomile [2]; [10]): 100 | Plant response rating, Chamomile (chamomile [2]; 62 g ai/ha, scale 0-100): 100 | Plant response rating, Chamomile (chamomile [2]; 125 g ai/ha, scale 0-100): 100 | Plant response rating, Chamomile (chamomile [2]; 250 g ai/ha, scale 0-100): 100 | Plant response rating, Oat, Wild (wild oat; [10]): 0 | Plant response rating, Oat, Wild (wild oat; 62 g ai/ha, scale 0-100): 0 | Plant response rating, Oat, Wild (wild oat; 125 g ai/ha, scale 0-100): 20 | Plant response rating, Oat, Wild (wild oat; 250 g ai/ha, scale 0-100): 50 | Plant response rating, Windgrass (windgrass; [10]): 20 | Plant response rating, Windgrass (windgrass; 125 g ai/ha, scale 0-100): 45 | Plant response rating, Windgrass (windgrass; 250 g ai/ha, scale 0-100): 55 | Plant response rating, Foxtail, Green (green foxtail; 31 g ai/ha, scale 0-100): 10 | Plant response rating, Foxtail, Green (green foxtail; [11]): 10 | Plant response rating, Foxtail, Green (green foxtail; [12]): 50 | Plant response rating, Foxtail, Green (green foxtail; [13]): 85 | Plant response rating, Chamomile (chamomile [3]; 31 g ai/ha, scale 0-100): 0 | Plant response rating, Chamomile (chamomile [3]; [11]): 0 | Plant response rating, Chamomile (chamomile [3]; [12]): 10 | Plant response rating, Chamomile (chamomile [3]; [13]): 10 | Plant response rating, Wheat, Spring (spring wheat; 31 g ai/ha, scale 0-100): 15 | Plant response rating, Wheat, Spring (spring wheat; [11]): 25 | Plant response rating, Wheat, Spring (spring wheat; [12]): 30 | Plant response rating, Wheat, Spring (spring wheat; [13]): 35 | Plant response rating, Wheat, Winter (winter wheat; 31 g ai/ha, scale 0-100): 10 | Plant response rating, Wheat, Winter (winter wheat; [11]): 25 | Plant response rating, Wheat, Winter (winter wheat; [12]): 20 | Plant response rating, Wheat, Winter (winter wheat; [13]): 25
